Results on seven compounds are retold here after patent US11931431B2, “PSMA-targeted radiopharmaceutical for diagnosing and treating prostate cancer” (FUTURECHEM CO., LTD, priority 2018, dated 2024).

“Also recorded” adds a separate entry of the source. Like-named read-outs stand apart in the source and are kept apart here.

The experiment concerns the target PSMA (Homo sapiens, UniProt Q04609). Nature of the experiment: Measurement of binding capacity: competition with [^125I]30 on 22RV1 cells. More on the design: host or cells: 22RV1 human prostate cancer cells. As for the experimental part:
To confirm the binding capacity of the compounds of the present invention to PSMA, the following experiment was performed.
RPMI1640 supplemented with 1% BSA (bovine serum albumin) was used as a buffer solution.
[^125I]30 (0.1 nM) obtained in Comparative Example 1 was added to a vessel containing 22RV1 cells (5×10^4), to which the compound represented by formula 1 was loaded at 9 concentrations (1.00×10^−4˜1.00×10^−12 M), followed by stirring at 37° C. for 2 hours. Upon completion of the stirring, the vessel was washed with PBS solution (2 mL) three times, and then the radioactivity was measured using a gamma counter (2480 WIZARD2 Gamma Counter PerkinElmer Co., MA). The 50% inhibition concentration (IC50) for each compound was calculated using a GraphPad Prism program (GraphPad Software, Inc., CA)
(Maresca, K. P. et al., 2009, J. Med. Chem. 52, 347-357)

Setting [1] is: 22RV1 cells, [^125I]30 0.1 nM, 37° C., 2 hours, read-out: IC50.
Where [2] appears, read: 22RV1 cells, [^125I]30 0.1 nM, 37° C., 2 hours, read-out: Ki value.

PSMA, sequence (Q04609 whole entry): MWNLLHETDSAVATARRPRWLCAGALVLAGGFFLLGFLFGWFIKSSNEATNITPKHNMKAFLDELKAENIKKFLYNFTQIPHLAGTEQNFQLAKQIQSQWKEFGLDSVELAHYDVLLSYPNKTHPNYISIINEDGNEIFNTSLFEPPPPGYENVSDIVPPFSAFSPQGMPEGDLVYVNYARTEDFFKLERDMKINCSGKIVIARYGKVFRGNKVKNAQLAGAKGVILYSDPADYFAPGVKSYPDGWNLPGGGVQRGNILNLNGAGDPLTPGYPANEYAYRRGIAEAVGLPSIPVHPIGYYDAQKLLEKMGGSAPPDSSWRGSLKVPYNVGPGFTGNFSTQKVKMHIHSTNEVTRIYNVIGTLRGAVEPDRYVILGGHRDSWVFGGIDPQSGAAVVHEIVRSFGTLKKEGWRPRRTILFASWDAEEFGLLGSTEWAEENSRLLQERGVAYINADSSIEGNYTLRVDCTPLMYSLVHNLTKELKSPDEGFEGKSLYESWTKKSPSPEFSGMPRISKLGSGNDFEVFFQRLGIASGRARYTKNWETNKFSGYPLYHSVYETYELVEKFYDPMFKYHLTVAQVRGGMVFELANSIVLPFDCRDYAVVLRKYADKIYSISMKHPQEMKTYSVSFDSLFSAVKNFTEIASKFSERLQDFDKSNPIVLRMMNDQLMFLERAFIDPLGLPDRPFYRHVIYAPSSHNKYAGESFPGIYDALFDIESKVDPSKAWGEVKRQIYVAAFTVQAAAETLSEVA

What is called IC50 is the point on the concentration scale where inhibition reaches its midpoint. As a reminder, the Ki is a dissociation constant, usually derived from enzyme kinetics or from competition with a known ligand. Regarding `O=C(O)CC[C@H](NC(=O)N[C@@H](CCCCNC(=O)NCc1cn(CCOCCNC(=O)CN2CCN3CCN4CCN(CC2)CC(=O)[O][Ga]([O]C(=O)C3)[O]C(=O)C4)nn1)C(=O)O)C(=O)O` [Ga-1a], the “binding force / binding capacity to PSMA, in words” value (22RV1 cells) is listed as “relatively low binding force to PSMA”. Also, the IC50 under setting [1] was determined as 571 ± 136 nM. In addition, the Ki under setting [2] is 69.9 ± 29.8 nM. Also, under “compared with Ga-1a”, the “binding force to PSMA, times higher than that of Ga-1a” value is “about 18.6 times”.
Consider `O=C(O)CC[C@H](NC(=O)N[C@@H](CCCCN(CC(=O)O)C(=O)COCCNC(=O)CN1CCN2CCN3CCN(CC1)CC(=O)[O][Ga]([O]C(=O)C2)[O]C(=O)C3)C(=O)O)C(=O)O` [Ga-1i], for which the half-maximal inhibitory concentration (IC50) under setting [1] is 69 ± 3.27 nM. Also, under setting [2], the Ki was 14.4 ± 0.68 nM.
Regarding `O=C(O)CCC(NC(=O)NC(CCC(=O)N(CC(=O)O)Cc1cn(CCOCCNC(=O)CN2CCN3CCN4CCN(CC2)CC(=O)[O][Ga]([O]C(=O)C3)[O]C(=O)C4)nn1)C(=O)O)C(=O)O` (centres unmarked) [Ga-1p], under setting [1], the IC50 is 703 ± 145 nM. The inhibition constant Ki under setting [2] turned out to be 130 ± 26.6 nM.
The compound `O=C(O)CCC(NC(=O)NC(CCCCN(CC(=O)O)C(=O)COCCOCCNC(=O)C(CCCCNC(=O)CCCc1ccc(I)cc1)NC(=O)CN1CCN2CCN3CCN(CC1)CC(=O)[O][Ga]([O]C(=O)C2)[O]C(=O)C3)C(=O)O)C(=O)O` (centres unmarked) [Ga-1h] had an IC50 of 11 ± 0.35 nM and a Ki of 3 ± 0.1 nM. For the same compound, the “binding force / binding capacity to PSMA, in words” value (22RV1 cells) is “higher binding capacity than the compound Ga-1e; also recorded: highest binding capacity”.
On to `O=C(O)CCC(NC(=O)NC(CCCCN(CC(=O)O)C(=O)COCCOCCNC(=O)CN1CCN2CCN3CCN(CC1)CC(=O)[O][Ga]([O]C(=O)C2)[O]C(=O)C3)C(=O)O)C(=O)O` (centres unmarked) [Ga-1e], for which, under setting [1], the IC50 came to 47.4 ± 1.78 nM. The Ki under setting [2] came to 12.9 ± 0.49 nM.
For `O=C(O)CC[C@H](NC(=O)N[C@@H](CCCCN(CC(=O)O)C(=O)CCc1cn(CCOCCNC(=O)CN2CCN3CCN4CCN(CC2)CC(=O)[O][Ga]([O]C(=O)C3)[O]C(=O)C4)nn1)C(=O)O)C(=O)O` [Ga-1c], in that order: 21.2 ± 2.06 nM and 3.76 ± 0.37 nM.
`O=C(O)CC[C@H](NC(=O)N[C@@H](CCC(=O)N(CCOCCOCCNC(=O)CN1CCN2CCN3CCN(CC1)CC(=O)[O][Ga]([O]C(=O)C2)[O]C(=O)C3)CC(=O)O)C(=O)O)C(=O)O` [Ga-1n]: the IC50 under setting [1] worked out at 174 ± 3.87 nM. The Ki under setting [2] was found to be 32.1 ± 0.71 nM.
